In patent US11452292B2, “Biofilm inhibitor and method of inhibiting biofilm” (NDSU Research Foundation, priority 2017, dated 2022):
Converted amounts (≈) assume the structure as drawn. Like-named read-outs stand apart in the source and are kept apart here.

Legend:
[1] = test system: E. coli O157:H7; assay: Biofilm amounts in liquid beef broth at 10° C.; assay type: cell-based; conditions: for effect on bacterial cell counts and biofilm amounts: E. coli O157:H7 grown in liquid beef broth at 10° C.; for IC50: Escherichia coli, read-out: IC50 biofilm
[2] = test system: flhD; assay: flhD, supplement/control, TB medium; assay type: cell-based, E. coli K-12
[3] = test system: E. coli O157:H7; assay: Bacterial cell number in liquid beef broth at 10° C.; assay type: cell-based; conditions: Escherichia coli, read-out: IC50 cell number
[4] = test system: E. coli K-12; assay type: cell-based
[5] = test system: E. coli K-12; assay: Biofilm, supplement/control, TB medium; assay type: cell-based
[6] = test system: Y. enterocolitica; assay: Motility assay on motility plates; assay type: cell-based, Yersinia enterocolitica; conditions: 5 mg/ml of AAA, 25° C., semi solid tryptone broth agar plates
[7] = test system: C. sakazakii; assay: Growth and biofilm assays taken together (growth, CV, ATP); conditions: Cronobacter sakazakii, read-out: IC50 values, range over growth, CV and ATP assays
[8] = test system: flhD; assay: qPCR of mRNA transcript in response to AAA; conditions: 5 mg/ml AAA; biofilm associated and planktonic bacteria, 25 and 37° C.
[9] = test system: Y. enterocolitica; assay: Planktonic growth (maximal velocity of OD600) in TSB; assay type: cell-based, Yersinia enterocolitica; conditions: Yersinia enterocolitica, Y. enterocolitica, 37° C.
Procedure: (§1) The IC50 values were calculated using […] software (Hitachi Solutions, San Bruno, Calif.).

[10] = test system: S. marcescens; assay: as above; assay type: cell-based; conditions: Serratia marcescens, 30° C.
Procedure: as §1

[11] = test system: C. sakazakii; assay: as above; assay type: cell-based; conditions: Cronobacter sakazakii, 37° C.
Procedure: as §1

[12] = test system: ymoA; assay: qPCR of mRNA transcript in response to AAA; conditions: 5 mg/ml AAA
[13] = test system: S. marcescens; assay: Biofilm amounts, ATP assay, 24-well polystyrene plate; assay type: cell-based; conditions: Serratia marcescens, 30° C.
[14] = test system: Y. enterocolitica; assay: Biofilm amounts, CV assay, 24-well polystyrene plate; assay type: cell-based, Yersinia enterocolitica; conditions: Yersinia enterocolitica, Y. enterocolitica
From the text: (§2) Data were expressed as OD600.

[15] = test system: Y. enterocolitica; assay: Growth and biofilm assays taken together (growth, CV, ATP); conditions: Yersinia enterocolitica, read-out: IC50 values, range over growth, CV and ATP assays
[16] = test system: S. marcescens; assay: as above; conditions: Serratia marcescens, read-out: IC50 values, range over growth, CV and ATP assays
[17] = test system: S. marcescens; assay: Biofilm amounts, CV assay, 24-well polystyrene plate; assay type: cell-based; conditions: Serratia marcescens, 30° C.
From the text: as §2

[18] = test system: C. sakazakii; assay: as above; assay type: cell-based; conditions: Cronobacter sakazakii, 37° C.
From the text: as §2

[19] = test system: Y. enterocolitica; assay: Biofilm amounts, ATP assay, 24-well polystyrene plate; assay type: cell-based, Yersinia enterocolitica; conditions: Yersinia enterocolitica, Y. enterocolitica
[20] = test system: yadA; assay: qPCR of mRNA transcript in response to AAA; conditions: 5 mg/ml AAA
[21] = test system: virF; assay: qPCR of mRNA transcript in response to AAA; conditions: 5 mg/ml AAA; biofilm, both temperatures
[22] = test system: C. sakazakii; assay: Biofilm amounts, ATP assay, 24-well polystyrene plate; assay type: cell-based; conditions: Cronobacter sakazakii, 37° C.
[23] = test system: S. aureus; assay: Biofilm amounts on PEA containing polyurethane relative to plain polyurethane; assay type: cell-based, Staphylococcus aureus; conditions: 5 wt. % PEA in polyurethane vs 0% PEA
From the text: The instant inventors modified a material that is commonly used in clinical and food processing contexts, polyurethane, with β-phenylethylamine (PEA). To produce the PEA containing polyurethane (PU-PEA), food grade polyurethane (Zythane 7085A™) was impregnated with 0, 2.5, 5.0, and 10.0 weight percent PEA and a heat-melt extruded. At 10 wt. %, PEA formed aggregates and was not anymore uniformly distributed throughout the material (FIG. 17).
The biofilm inhibiting efficacy of 5 wt. % PEA was then tested against six bacterial strains (FIG. 18). E. coli AJW is non-pathogenic and was described as a good former of biofilm, P. aeruginosa is a pathogen that was described as a contaminant on conveyor belts, but also forms biofilm on urinary catheters. S. aureus causes staph infections and can form biofilm in intravenous catheters, E. coli O157:H7 has been studied in multiple foods and on numerous food processing surfaces, and the two E. coli UPEC strains are uropathogens that are commonly found on catheters. PU/PEA had reduced biofilm amounts relative to plain polyurethane for all strains tested. Reductions varied between 5 and 80% in depending on the bacterial pathogen. In particular, this initial PU-PEA material was able to reduce Staphylococcus aureus biofilm by 80% and biofilm of several other bacterial pathogens by 20 to 50%.

[24] = test system: bacteria; assay: Live/dead assay with fluorescence dyes; assay type: cell-based; conditions: live/dead staining, preliminary data
Procedure: To determine whether the bacteria were being adversely affected by PEA, a live/dead assay was performed where the total bacterial population and the population of dead bacteria were stained with different fluorescence dyes. […] This supports the argument that the bacterial nutrients reduce biofilm amounts without killing the bacteria, therefore, reducing the likelihood of the development of resistance.

O=P(O)(O)OCC(O)CO (racemic) [D,L-glycerol phosphate]
effect on bacterial cell counts and biofilm amounts [1]: inhibit bacterial cell counts and biofilm amounts

CCCCCCC(N)C(=O)O (racemic) [D,L-α-aminocaprylic acid]
Ratio, flhD (supplement/control) [2]: 0.55
IC50 [3]: 1.96 mg/mL (≈ 12.3 mM)
effect on bacterial cell counts and biofilm amounts [1]: inhibit bacterial cell counts and biofilm amounts
IC50 [1]: 1.84 mg/mL (≈ 11.6 mM)
Ratio, growth (supplement/control) [4]: 0.26
Ratio, biofilm (supplement/control) [5]: 0.85

CC(=O)CC(=O)O [AAA, acetoacetate]
motility in the presence of AAA [6]: about 0.25 mm/h
IC50 [7]: 20 to 24 mg/mL (≈ 196 to 235 mM)
reduction of mRNA levels of flhD [8]: approximately 5 fold
IC50 [9]: 11 mg/mL (≈ 108 mM)
IC50 [10]: 29 mg/mL (≈ 284 mM)
IC50 [11]: 20 mg/mL (≈ 196 mM)
effect of AAA on ymoA transcription [12]: no effect
IC50 [13]: 24 mg/mL (≈ 235 mM)
IC50 ([14]; 25° C.): 26 mg/mL (≈ 255 mM)
IC50 ([14]; 37° C.): 14 mg/mL (≈ 137 mM)
IC50 [15]: 11 to 14 mg/mL (≈ 108 to 137 mM)
IC50 [16]: 24 to 35 mg/mL (≈ 235 to 343 mM)
IC50 [17]: 35 mg/mL (≈ 343 mM)
IC50 [18]: 22 mg/mL (≈ 215 mM)
IC50 ([19]; 25° C.): 18 mg/mL (≈ 176 mM)
IC50 ([19]; 37° C.): 12 mg/mL (≈ 118 mM)
reduction of mRNA levels for yadA ([20]; biofilm bound bacteria at 25° C.): ~10 fold
reduction of mRNA levels for yadA ([20]; planktonic bacteria at 37° C.): approximately 20 fold
reduction of virF transcript [21]: about 3 fold
IC50 [22]: 24 mg/mL (≈ 235 mM)

NC(=O)C[C@@H](N)C(=O)O [D-asparagine]
Ratio, flhD (supplement/control) [2]: 1.2
IC50 [3]: 0.62 mg/mL (≈ 4.69 mM)
effect on bacterial cell counts and biofilm amounts [1]: inhibit bacterial cell counts and biofilm amounts
IC50 [1]: 0.2 mg/mL (≈ 1.51 mM)
Ratio, growth (supplement/control) [4]: 0.9
Ratio, biofilm (supplement/control) [5]: 1.07

N[C@@H]1C(O)O[C@H](CO)[C@@H](O)[C@@H]1O (stereo partly drawn) [D-mannosamine]
effect on bacterial cell counts and biofilm amounts [1]: inhibit bacterial cell counts and biofilm amounts

O=C[C@H](O)[C@@H](O)[C@H](O)CO [D-xylose]
Ratio, flhD (supplement/control) ([2]; E. coli K-12, TB, 25° C.): 0.56
Ratio, growth (supplement/control) ([4]; E. coli K-12, TB, 25° C.): 0.91
effect on growth and biofilm amounts [5]: inhibitors of growth and biofilm amounts
Ratio, biofilm (supplement/control) ([5]; E. coli K-12, TB, 25° C.): 0.59

O=C[C@H](O)[C@H](O)[C@@H](O)CO [L-lyxose]
Ratio, flhD (supplement/control) [2]: 0.68
IC50 [3]: 72 mg/mL (≈ 480 mM)
effect on bacterial cell counts and biofilm amounts [1]: inhibit bacterial cell counts and biofilm amounts
IC50 [1]: 76 mg/mL (≈ 506 mM)
Ratio, growth (supplement/control) [4]: 0.98
Ratio, biofilm (supplement/control) [5]: 0.71

NCCc1ccccc1 [PEA, β-phenylethylamine]
Ratio, flhD (supplement/control) [2]: 1.3
IC50 [3]: 0.32 mg/mL (≈ 2.64 mM)
effect on bacterial cell counts and biofilm amounts [1]: inhibit bacterial cell counts and biofilm amounts
IC50 [1]: 0.34 mg/mL (≈ 2.81 mM)
reduction of Staphylococcus aureus biofilm [23]: 80%
Ratio, growth (supplement/control) [4]: 0.81
viability of the bacteria [24]: not impacted
Ratio, biofilm (supplement/control) [5]: 1.1

Cc1c[nH]c(=O)[nH]c1=O [thymine]
effect on bacterial cell counts and biofilm amounts [1]: inhibit bacterial cell counts and biofilm amounts

CCC(=O)C(=O)O [α-keto-butyric acid]
Ratio, flhD (supplement/control) ([2]; E. coli K-12, TB, 25° C.): 0.57
Ratio, growth (supplement/control) ([4]; E. coli K-12, TB, 25° C.): 0.54
effect on growth and biofilm amounts [5]: inhibitors of growth and biofilm amounts
Ratio, biofilm (supplement/control) ([5]; E. coli K-12, TB, 25° C.): 0.62
